Reference: patent US7767665B2, “1,3-benzothiazinone derivatives and use thereof” (Takeda Pharmaceutical Company Limited, priority 2001, dated 2010)

What was measured:
[1] = tested on: primary heart muscle cells from newborn rats; assay: Inhibitory activity on heart muscle cell apoptosis (serum-free culture, viable cell number by WST-8); type: cell-based, Wister rats; details: Rattus norvegicus, 96 h; mean of three independent experiments; concentration required to increase the mean viable cell number by 50% as compared with that in the absence of test compounds; serum-free Medium 199, 4 days
Excerpt: Inhibitory Activity on Heart Muscle Cell Apoptosis
Newborn rats (within 1 day afterbirth) were obtained from pregnant Wister rats purchased from Charles River, anesthetized under ether, and sterilized with 70% ethanol, and then their hearts were excised with tweezers. The excised hearts were washed with a phosphate-buffered physiological saline (T900; Takara) and cut into pieces with surgical scissors. These tissue pieces were washed 4 to 5 times with a phosphate-buffered physiological saline to remove a majority of blood-derived non-heart muscle cells. To the tissue pieces derived from 10 newborns, 5 ml of enzyme solution (1.25 mg trypsin (Difco) and 0.25 mg collagenase (Sigma) per ml of phosphate-buffered saline (PBS)) was added and the mixture was stirred with a stirrer at 37° C. for 15 minutes. Another 2.5 ml enzyme solution was then added twice repeatedly at a 15-minutes interval. Then, Medium 199 (Gibco) containing 10% fetal calf serum (Biowiker) was added in a half volume of the enzyme solution to terminate the enzyme reaction. The cells were filtered through a Cell Strainer (Falcon) and then centrifuged at 400×g for 5 minutes, whereby the cells were collected.
The cells thus collected from 10 newborns were suspended in 50 ml Medium 199 containing 10% fetal calf serum, plated onto 100 mm Petri dishes (Iwaki) in a volume of 10 ml/dish and cultured for 1 hour in a CO2 incubator set at 5% CO2 and 37° C. The cells were then recovered, filtered through a Cell Strainer and centrifuged at 400×g for 5 minutes to collect the primary heart muscle cells derived from newborn rats.
Then, the heart muscle cells from 10 newborn rats were suspended in 2 ml low-isotonic solution (prepared by dissolving 8.29 g NH4Cl, 1.0 g KHCO3, 37 mg EDTA/2Na (ethylenediaminetetraacetic acid disodium) (Dojindo) in 1 L of water) and left for 3 minutes to disrupt erythrocytes. After 10 ml Medium 199 containing 10% fetal calf serum was added thereto, the primary heart muscle cells from newborn rats were collected by centrifugation at 400×g for 5 minutes. The cells were suspended in Medium 199 containing 10% fetal calf serum and then filtered through a cell strainer. After 0.3% trypan blue was added to, and mildly mixed with, an aliquot of the resulting cell suspension, the number of heart muscle cells was counted on an erythrocyte counting plate.
The primary heart muscle cells from newborn rats were suspended at a density of 3×10^6 cells/ml in Medium 199 containing 10% fetal calf serum, put onto a 96-well plate in a volume of 0.1 ml/well, and then cultured in a CO2 incubator set at 5% CO2 and 37° C. After the plate was stirred with a micromixer (Taiyo Kagaku Kogyo), the medium was exchanged 3 times with serum-free Medium 199, and then test compounds were added thereto. The cells were cultured for additional 4 days to induce apoptosis. Then, fetal calf serum was added thereto at a concentration of 10%, and the cells were further cultured for about 17 hours in a CO2 incubator set at 5% CO2 and 37° C. Finally, the number of viable cells was determined with Cell Counting Kit (Dojindo) using WST-8 (2-(2-methoxy-4-nitrophenyl)-3-(4-nitrophenyl)-5-(2,4-disulfophenyl)-2H-tetrazolium, monosodium salt) as the coloring substrate to determine the inhibition of the heart muscle cell apoptosis.
The above-mentioned experiment was triplicated in an independent manner.
The Mean minimal effective concentration (±SD) was shown for each test compound (Compounds 1 to 5 obtained in Reference Examples) in Table 1. In Table 1, the minimal effective concentration is defined as the concentration required to increase the mean viable cell number by 50% as compared with that in the absence of test compounds.

| Compound | melting point | minimal effective concentration [1] [µM] |
| --- | --- | --- |
| CCCNC(=O)c1ccc(-c2nc(=O)c3ccccc3s2)nc1 [Example 37, 6-(4-Oxo-4H-1,3-benzothiazin-2-yl)-N-propylnicotinamide] | 268 to 268.6 °C | 0.037 |
| Cc1ccc2c(=O)nc(-c3ccccn3)sc2c1 [Example 39, 7-Methyl-2-(2-pyridyl)-4H-1,3-benzothiazine-4-one] | 225 to 225.2 °C | 0.037 |
| O=c1nc(-c2cccc(CO)n2)sc2ccccc12 [Example 40, 2-[6-(Hydroxymethyl)-2-pyridyl]-4H-1,3-benzothiazine-4-one] | 208.2 to 208.7 °C | 0.044 |
| CSc1cccc(-c2nc(=O)c3ccccc3s2)n1 [Example 43, 2-(6-Methylthio-2-pyridyl)-4H-1,3-benzothiazine-4-one] | 207.2 to 207.8 °C | 0.053 |
| O=c1nc(-c2ccc(CO)cn2)sc2ccccc12 [Example 48, 2-[5-(hydroxymethyl)-2-pyridyl]-4H-1,3-benzothiazine-4-one] | 246.9 to 247.9 °C | 0.043 |
| O=c1nc(-c2ccc(C(F)(F)F)cn2)sc2ccccc12 [Example 49, 2-[5-(trifluoromethyl)-2-pyridyl]-4H-1,3-benzothiazine-4-one] | 207.2 to 207.4 °C | 0.043 |
| COc1ccc2c(=O)nc(-c3ccccn3)sc2c1 [Example 54, 7-methoxy-2-(2-pyridyl)-4H-1,3-benzothiazine-4-one] | 200 to 202.2 °C | 0.037 |
| O=c1nc(-c2cc[n+]([O-])cc2)sc2ccccc12 [Example 55] | 248.2 to 251.7 °C | 0.016 |
| COc1cccc(-c2nc(=O)c3ccccc3s2)n1 [Example 56, 2-(6-Methoxy-2-pyridyl)-4H-1,3-benzothiazine-4-one] | 226 to 226.1 °C | 0.039 |
| CCCOc1cccc(-c2nc(=O)c3ccccc3s2)n1 [Example 58, 2-(6-Propoxy-2-pyridyl)-4H-1,3-benzothiazine-4-one] | 138.3 to 140 °C | 0.091 |
| CCC[S+]([O-])c1cccc(-c2nc(=O)c3ccccc3s2)n1 (stereo not shown) [Example 60, 2-(6-Propylsulfinyl-2-pyridyl)-4H-1,3-benzothiazine-4-one] | 174.8 to 175.4 °C | 0.019 |
| CCCS(=O)(=O)c1cccc(-c2nc(=O)c3ccccc3s2)n1 [Example 61, 2-(6-Propylsulfonyl-2-pyridyl)-4H-1,3-benzothiazine-4-one] | 173.8 to 174.5 °C | 0.01 |
| Cc1ccc([S+]([O-])c2cccc(-c3nc(=O)c4ccccc4s3)n2)cc1 (stereo not shown) [Example 63, 2-{6-[(4-Methylphenyl)sulfinyl]-2-pyridyl}-4H-1,3-benzothiazine-4-one] | 228 to 228.2 °C | 0.046 |
| COCOCc1cccc(-c2nc(=O)c3ccccc3s2)n1 [Example 65, 2-[(6-Methoxymethoxymethyl)-2-pyridyl]-4H-1,3-benzothiazine-4-one] | 159.6 to 159.8 °C | 0.045 |
| O=C(O)CCOCCCc1cccc(-c2nc(=O)c3ccccc3s2)n1 [Example 67, 3-{3-[6-(4-Oxo-4H-1,3-benzothiazin-2-yl)-2-pyridyl]propoxy}propionic acid] | 141 to 142 °C | 0.031 |
| CSc1cc(-c2nc(=O)c3ccccc3s2)ccn1 [Example 68, 2-(2-Methylthio-4-pyridyl)-4H-1,3-benzothiazine-4-one] | 173.4 to 173.5 °C | 0.018 |
| COc1cc(-c2nc(=O)c3ccccc3s2)ccn1 [Example 70, 2-(2-Methoxy-4-pyridyl)-4H-1,3-benzothiazine-4-one] | 148.8 to 150.5 °C | 0.017 |
| O=c1nc(-c2ccnc(N3CCOCC3)c2)sc2ccccc12 [Example 73, 2-(2-Morpholinyl-4-pyridyl)-4H-1,3-benzothiazine-4-one] | 157 to 158 °C | 0.024 |
| O=c1nc(-c2ccnc(Cl)c2)sc2ccccc12 [Example 76, 2-(2-Chloro-4-pyridyl)-4H-1,3-benzothiazine-4-one] | 177.8 to 178.4 °C | 0.036 |
| COC(=O)c1ccccc1Sc1cc(-c2nc(=O)c3ccccc3s2)ccn1 [Example 77, methyl 2-{[4-(4-oxo-4H-1,3-benzothiazin-2-yl)-2-pyridyl]thio}benzoate] | 137 to 137.9 °C | 0.039 |
| O=C(O)CCc1cccc(-c2nc(=O)c3ccccc3s2)n1 [Example 79, 3-[6-(4-Oxo-4H-1,3-benzothiazin-2-yl)-2-pyridyl]propionic acid] | 243.2 to 243.5 °C | 0.061 |
| O=C(NCC(F)(F)F)c1cccc(-c2nc(=O)c3ccccc3s2)n1 [Example 82, 6-(4-Oxo-4H-1,3-benzothiazin-2-yl)-N-(2,2,2-trifluoroethyl)-2-pyridinecarboxamide] | 242.6 to 244.2 °C | 0.011 |

More lines, main results first:

| melting point | Compound | minimal effective concentration [1] [µM] |
| --- | --- | --- |
| 294.6 to 294.9 °C | NC(=O)c1cccc(-c2nc(=O)c3ccccc3s2)n1 [Example 38, 6-(4-Oxo-4H-1,3-benzothiazin-2-yl)-2-pyridinecarboxamide] | 0.013 |
| 179.7 to 181.4 °C | CCCNC(=O)c1cccc(-c2nc(=O)c3ccccc3s2)n1 [Example 50, 6-(4-Oxo-4H-1,3-benzothiazin-2-yl)-N-propyl-2-pyridinecarboxamide] | 0.02 |
| 197.1 to 197.9 °C | O=C(NCc1ccccc1)c1cccc(-c2nc(=O)c3ccccc3s2)n1 [Example 51, N-Benzyl-6-(4-oxo-4H-1,3-benzothiazin-2-yl)-2-pyridinecarboxamide] | 0.034 |
| 190.8 to 192.4 °C | CCCN(C(=O)c1cccc(-c2nc(=O)c3ccccc3s2)n1)C(=O)N(C)C [Example 52, N,N-Dimethyl-N′-[[6-(4-oxo-4H-1,3-benzothiazin-2-yl)-2-pyridyl]carbonyl]-N′-propylurea] | 0.01 |
| 222.2 to 224 °C | CN(C)C(=O)N(Cc1ccccc1)C(=O)c1cccc(-c2nc(=O)c3ccccc3s2)n1 [Example 53, N-Benzyl-N′,N′-dimethyl-N-[[6-(4-oxo-4H-1,3-benzothiazin-2-yl)-2-pyridyl]carbonyl]-urea] | 0.032 |
| 240.9 to 241 °C | O=c1nc(-c2cccc(OCc3ccccc3)n2)sc2ccccc12 [Example 57, 2-[6-(Benzyloxy)-2-pyridyl]-4H-1,3-benzothiazine-4-one] | 0.033 |
| 219.6 °C (dec.) | Cc1ccc(S(=O)(=O)c2cccc(-c3nc(=O)c4ccccc4s3)n2)cc1 [Example 64, 2-{6-[(4-Methylphenyl)sulfonyl]-2-pyridyl}-4H-1,3-benzothiazine-4-one] | 0.052 |
| 185 to 185.5 °C | CC(C)(C)OC(=O)c1cccc(-c2nc(=O)c3ccccc3s2)n1 [Example 80, tert-Butyl 6-(4-oxo-4H-1,3-benzothiazin-2-yl)-2-pyridinecarboxylate] | 0.035 |
| 260.2 to 260.5 °C | O=C(O)c1cccc(-c2nc(=O)c3ccccc3s2)n1 [Example 81, 6-(4-Oxo-4H-1,3-benzothiazin-2-yl)-2-pyridinecarboxylic acid] | 0.012 |
| 175.5 to 176.7 °C | COCCNC(=O)c1cccc(-c2nc(=O)c3ccccc3s2)n1 [Example 83, N-(2-Methoxyethyl)-6-(4-oxo-4H-1,3-benzothiazin-2-yl)-2-pyridinecarboxamide] | 0.027 |
